From article PMC11467761 (RSC Medicinal Chemistry, 2024)

Experiments:
Caco-2 cell monolayers = experiment: Caco-2 cell permeability; assay type: in vitro ADME, human; settings: polarized Caco-2 cell monolayers
[1] = tested on: human induced pluripotent stem cell (iPSC)-derived cardiomyocytes, iCell Cardiomyocytes2; experiment: Cardiac safety assay, Ca2+ oscillation in iPSC-derived cardiomyocytes; settings: 60 minutes, n = 3

Row | Compound | Caco-2 cell permeability Class (Caco-2 cell monolayers) | Effect on pulse waveforms and beat intervals (Ca2+ oscillation) ([1]; 0.2 μM) | Effect on pulse waveforms and beat intervals (Ca2+ oscillation) ([1]; 2 μM) | Effect on pulse waveforms and beat intervals (Ca2+ oscillation) ([1]; 20 μM)
1 | O=C(C1CCCCC1)N1CON2CCc3ccccc3C2C1 (centres unmarked) [Compound 4] | High | did not affect the pulse waveforms and beat intervals | the pulse waveforms remained unchanged, but a slight shortening of beat intervals was observed for up to 30 minutes post-addition | did not alter the pulse waveforms, but resulted in shortened beat intervals
2 | O=C(C1CCCCC1)N1CC(=O)N2CCc3ccccc3C2C1 (centres unmarked) [PZQ, praziquantel, reference compound] | High | – | – | –
